SMILES strings stand for the structures. Entries after “also recorded” stand apart in the source; their conditions may differ.

One series addresses serum RBP4 (Mus musculus (Mouse), UniProt Q00724). In words: Serum RBP4 after long-term oral dosing in Abca4−/− mice. It is filed as in vivo. The settings on record: 25 mg/kg daily in chow. The method, then: FIG. 7. Effect of the long-term oral (±)-44 administration in Abca4^−/− mice on serum RBP4 levels. Serum RBP4 levels were measured in vehicle-treated Abca4^−/− mice (squares) and (±)-44-treated Abca4-mice (triangles) at the indicated time points. […] Error bars show S.D. Each data point on the graph represents a serum RBP4 concentration from an individual animal.
Blood samples were collected from a tail vein. Whole blood was drawn into a centrifuge tube and was allowed to clot at room temperature for 30 minutes followed by centrifugation at 2000 g for 15 minutes at […] to collect serum. Aliquots of plasma samples collected in the mouse pharmacokinetic study were analyzed for the RBP4 concentration using the RBP4 (mouse/rat) dual ELISA kit (AdipoGen, San Diego, CA) following the manufacturer's instructions. In adi-hRBP4 transgenic mouse experiments, blood samples were collected from a tail vein. Whole blood was drawn into a centrifuge tube and was allowed to clot at room temperature for 30 min followed by centrifugation at 2000 g for 15 min at +4° C. to collect serum. Mouse serum RBP4 (produced predominantly in the liver) was measured using the RBP4 (mouse/rat) dual ELISA kit (AdipoGen, San Diego, CA; catalog number AG-45A-0012YTP-KI01)
(±)-44 was formulated into a Picolab 5053 chow to ensure a daily dosing of 25 mg/kg of (±)-44. […]

Series [1] is described as follows: Plasma protein binding, rat plasma. It is filed as in vitro ADME. The following applies: Sprague Dawley, pH 7.4, read-out: % PPB, R (converted). The method, then: Plasma protein binding (PPB) for compounds determination for compound (±)-44 in PBS (pH 7.4) was conducted by Eurofins using equilibrium dialysis of plasma with HPLC-UV/Vis detection.
The peak areas of the test compound in the buffer and test samples were used to calculate percent binding and recovery according to the following formulas:
• Areap=Peak area of analyte in protein matrix • Areab=Peak area of analyte in buffer • Areac=Peak area of analyte in control sample

In a further series the target is TTR (Homo sapiens (Human), UniProt P02766). In words: Acid-induced TTR aggregation assay. The format is biochemical. The following applies: 50 μM compound, pH 4.0, 72 h, 37° C. The method, then: FIG. 6. […] After incubation in the presence of 50 μM Tafamidis, 50 μM Benzbromarone and 50 μM (±)-44, samples were crosslinked and subjected to SDS-PAGE followed by western blotting with TTR antibodies. The representative blot of at least three independent experiments is presented. (B, C), Bar graphs represent pixel volumes of TTR high molecular weight aggregates (B) and monomers (C). The vertical axes represent the ratio of pixel volume means±S.D. of the scanned bands on the immunoblots in arbitrary units. Statistical significance was determined by one-way ANOVA with Holm-Sidak post hoc test; *, p≤0.05; **, p≤0.01; ***, p≤0.001; ****, p≤0.0001 compare to TTR aggregation (pH 4.0)+DMSO group, #, p≤0.05; ##, p≤0.01; ###, p≤0.001; ####, p≤0.0001 compare to TTR without aggregation (pH 7.5) group.
The ability of test compounds to prevent TTR aggregation was evaluated under the acidic conditions that favor TTR aggregation and fibril formation. […] At the end of the incubation, 3.5 μl 500 mM sodium phosphate (Sigma #S5136) buffer pH=8.0 was added to each sample for neutralization and 0.6 μl 5% CHAPS (Sigma #C5070) as a detergent to prevent reassociation of protein. The cross-linking was performed by adding 1.5 μl 5% glutaraldehyde solution (Sigma #G6257). After 4 min, the reaction was stopped by the addition of 2.5 μl freshly made 5% NaBH4. Samples were subjected to TTR western blotting with prealbumin antibodies (1:500; Dako #A0002). Band intensity for TTR monomer and TTR aggregates was quantified from scanned images of the blots.

In the case of `Cc1cc(C(=O)O)nc(N2CCC(COc3ccccc3C(F)(F)F)C2)n1` (racemic) [Compound (±)-44, (±)-6-Methyl-2-(3-((2-(trifluoromethyl)phenoxy)methyl)pyrrolidin-1-yl)pyrimidine-4-carboxylic Acid], the “serum RBP4 reduction compared to untreated Abca4−/− mice” value on serum RBP4 (week 12) turned out to be 82%. For the same compound, the “serum RBP4 reduction compared with baseline” value at serum RBP4 (week 12, Abca4−/− mice) came out at 79%. In addition, the fraction unbound in series [1] was 0.04. Besides, the “formation of high molecular weight TTR species” value at TTR is recorded as “reduces the formation of high molecular weight TTR forms; also recorded: significantly reduced the formation of high molecular weight TTR species”. At TTR (vs DMSO), the “TTR monomer band intensities” value was “Significant increase” and the “fold reduction in formation of high molecular weight aggregates” value was determined as 4.7 fold.
